# Source: publication PMC7224190, “Pharmacological inhibition of PRMT7 links arginine monomethylation to the cellular stress response” (Nature Communications, 2020)
# Experiments:
# Assay in all cases: biochemical
# Parameters in all cases: radiometric methyltransferase selectivity assay with tritiated SAM, per cent activity
# Conditions in all cases: read-out: % of control remaining
# SETD2 = SETD2 (Homo sapiens, UniProt Q9BYW2)
# Procedure, shortened: (§1)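 Radiometric methyltransferase assays with ³H-SAM and substrate near apparent Km, compound tested at 1 and 10 μM. Methyl incorporation into biotinylated substrate read by scintillation proximity after guanidine quench; no-compound = 100%, no-enzyme = 0% activity.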
# SETD7 = target: T1, SETD7 (Homo sapiens, UniProt Q8WTS6)
# T1 sequence (Q8WTS6 1-366): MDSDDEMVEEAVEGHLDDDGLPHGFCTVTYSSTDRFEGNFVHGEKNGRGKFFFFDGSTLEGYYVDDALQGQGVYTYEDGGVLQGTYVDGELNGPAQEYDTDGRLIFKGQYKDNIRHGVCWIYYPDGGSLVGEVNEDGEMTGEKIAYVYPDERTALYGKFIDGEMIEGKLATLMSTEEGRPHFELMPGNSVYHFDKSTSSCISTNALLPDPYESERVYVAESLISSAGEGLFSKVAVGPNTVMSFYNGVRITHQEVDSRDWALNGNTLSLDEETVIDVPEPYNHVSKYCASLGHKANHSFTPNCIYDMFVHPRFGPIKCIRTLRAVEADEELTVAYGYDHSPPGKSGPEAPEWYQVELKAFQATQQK
# Procedure, shortened: as §1
# SUV39H2 = SUV39H2 (Homo sapiens, UniProt Q9H5I1)
# Chain of SUV39H2 (Q9H5I1 whole entry): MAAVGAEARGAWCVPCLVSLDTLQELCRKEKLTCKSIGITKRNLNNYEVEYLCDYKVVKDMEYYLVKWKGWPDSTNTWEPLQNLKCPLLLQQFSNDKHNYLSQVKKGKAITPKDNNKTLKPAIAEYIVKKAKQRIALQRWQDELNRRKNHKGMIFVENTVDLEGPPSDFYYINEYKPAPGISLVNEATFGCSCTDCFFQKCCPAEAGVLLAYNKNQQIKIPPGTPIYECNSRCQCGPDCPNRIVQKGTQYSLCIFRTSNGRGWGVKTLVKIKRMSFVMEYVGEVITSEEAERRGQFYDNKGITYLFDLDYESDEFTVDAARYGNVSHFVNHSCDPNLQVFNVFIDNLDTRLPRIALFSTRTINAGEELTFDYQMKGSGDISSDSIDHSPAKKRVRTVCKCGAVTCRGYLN
# Procedure, shortened: as §1
# PRMT4 = target: T2, PRMT4 (Homo sapiens, UniProt Q86X55)
# T2 construct: gene CARM1
# T2 sequence (Q86X55 1-608): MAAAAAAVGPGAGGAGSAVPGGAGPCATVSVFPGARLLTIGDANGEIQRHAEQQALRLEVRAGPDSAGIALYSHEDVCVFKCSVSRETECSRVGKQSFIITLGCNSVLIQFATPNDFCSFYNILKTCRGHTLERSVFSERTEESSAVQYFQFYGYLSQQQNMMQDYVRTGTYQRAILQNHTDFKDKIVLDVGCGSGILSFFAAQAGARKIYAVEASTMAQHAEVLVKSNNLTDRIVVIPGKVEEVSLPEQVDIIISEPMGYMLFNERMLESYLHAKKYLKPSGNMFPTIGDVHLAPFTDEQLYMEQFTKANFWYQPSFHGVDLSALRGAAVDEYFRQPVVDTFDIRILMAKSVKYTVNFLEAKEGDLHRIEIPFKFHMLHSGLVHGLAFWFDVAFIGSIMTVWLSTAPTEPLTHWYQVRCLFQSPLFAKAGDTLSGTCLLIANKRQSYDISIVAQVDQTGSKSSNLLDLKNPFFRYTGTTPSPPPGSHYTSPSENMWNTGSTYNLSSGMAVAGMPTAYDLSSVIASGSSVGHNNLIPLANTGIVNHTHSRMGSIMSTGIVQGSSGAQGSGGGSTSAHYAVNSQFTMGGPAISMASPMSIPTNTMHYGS
# Procedure, shortened: as §1
# MLL1 = target: T3, MLL1 (Homo sapiens, UniProt Q03164)
# T3 construct: gene KMT2A
# T3 sequence (Q03164 whole entry): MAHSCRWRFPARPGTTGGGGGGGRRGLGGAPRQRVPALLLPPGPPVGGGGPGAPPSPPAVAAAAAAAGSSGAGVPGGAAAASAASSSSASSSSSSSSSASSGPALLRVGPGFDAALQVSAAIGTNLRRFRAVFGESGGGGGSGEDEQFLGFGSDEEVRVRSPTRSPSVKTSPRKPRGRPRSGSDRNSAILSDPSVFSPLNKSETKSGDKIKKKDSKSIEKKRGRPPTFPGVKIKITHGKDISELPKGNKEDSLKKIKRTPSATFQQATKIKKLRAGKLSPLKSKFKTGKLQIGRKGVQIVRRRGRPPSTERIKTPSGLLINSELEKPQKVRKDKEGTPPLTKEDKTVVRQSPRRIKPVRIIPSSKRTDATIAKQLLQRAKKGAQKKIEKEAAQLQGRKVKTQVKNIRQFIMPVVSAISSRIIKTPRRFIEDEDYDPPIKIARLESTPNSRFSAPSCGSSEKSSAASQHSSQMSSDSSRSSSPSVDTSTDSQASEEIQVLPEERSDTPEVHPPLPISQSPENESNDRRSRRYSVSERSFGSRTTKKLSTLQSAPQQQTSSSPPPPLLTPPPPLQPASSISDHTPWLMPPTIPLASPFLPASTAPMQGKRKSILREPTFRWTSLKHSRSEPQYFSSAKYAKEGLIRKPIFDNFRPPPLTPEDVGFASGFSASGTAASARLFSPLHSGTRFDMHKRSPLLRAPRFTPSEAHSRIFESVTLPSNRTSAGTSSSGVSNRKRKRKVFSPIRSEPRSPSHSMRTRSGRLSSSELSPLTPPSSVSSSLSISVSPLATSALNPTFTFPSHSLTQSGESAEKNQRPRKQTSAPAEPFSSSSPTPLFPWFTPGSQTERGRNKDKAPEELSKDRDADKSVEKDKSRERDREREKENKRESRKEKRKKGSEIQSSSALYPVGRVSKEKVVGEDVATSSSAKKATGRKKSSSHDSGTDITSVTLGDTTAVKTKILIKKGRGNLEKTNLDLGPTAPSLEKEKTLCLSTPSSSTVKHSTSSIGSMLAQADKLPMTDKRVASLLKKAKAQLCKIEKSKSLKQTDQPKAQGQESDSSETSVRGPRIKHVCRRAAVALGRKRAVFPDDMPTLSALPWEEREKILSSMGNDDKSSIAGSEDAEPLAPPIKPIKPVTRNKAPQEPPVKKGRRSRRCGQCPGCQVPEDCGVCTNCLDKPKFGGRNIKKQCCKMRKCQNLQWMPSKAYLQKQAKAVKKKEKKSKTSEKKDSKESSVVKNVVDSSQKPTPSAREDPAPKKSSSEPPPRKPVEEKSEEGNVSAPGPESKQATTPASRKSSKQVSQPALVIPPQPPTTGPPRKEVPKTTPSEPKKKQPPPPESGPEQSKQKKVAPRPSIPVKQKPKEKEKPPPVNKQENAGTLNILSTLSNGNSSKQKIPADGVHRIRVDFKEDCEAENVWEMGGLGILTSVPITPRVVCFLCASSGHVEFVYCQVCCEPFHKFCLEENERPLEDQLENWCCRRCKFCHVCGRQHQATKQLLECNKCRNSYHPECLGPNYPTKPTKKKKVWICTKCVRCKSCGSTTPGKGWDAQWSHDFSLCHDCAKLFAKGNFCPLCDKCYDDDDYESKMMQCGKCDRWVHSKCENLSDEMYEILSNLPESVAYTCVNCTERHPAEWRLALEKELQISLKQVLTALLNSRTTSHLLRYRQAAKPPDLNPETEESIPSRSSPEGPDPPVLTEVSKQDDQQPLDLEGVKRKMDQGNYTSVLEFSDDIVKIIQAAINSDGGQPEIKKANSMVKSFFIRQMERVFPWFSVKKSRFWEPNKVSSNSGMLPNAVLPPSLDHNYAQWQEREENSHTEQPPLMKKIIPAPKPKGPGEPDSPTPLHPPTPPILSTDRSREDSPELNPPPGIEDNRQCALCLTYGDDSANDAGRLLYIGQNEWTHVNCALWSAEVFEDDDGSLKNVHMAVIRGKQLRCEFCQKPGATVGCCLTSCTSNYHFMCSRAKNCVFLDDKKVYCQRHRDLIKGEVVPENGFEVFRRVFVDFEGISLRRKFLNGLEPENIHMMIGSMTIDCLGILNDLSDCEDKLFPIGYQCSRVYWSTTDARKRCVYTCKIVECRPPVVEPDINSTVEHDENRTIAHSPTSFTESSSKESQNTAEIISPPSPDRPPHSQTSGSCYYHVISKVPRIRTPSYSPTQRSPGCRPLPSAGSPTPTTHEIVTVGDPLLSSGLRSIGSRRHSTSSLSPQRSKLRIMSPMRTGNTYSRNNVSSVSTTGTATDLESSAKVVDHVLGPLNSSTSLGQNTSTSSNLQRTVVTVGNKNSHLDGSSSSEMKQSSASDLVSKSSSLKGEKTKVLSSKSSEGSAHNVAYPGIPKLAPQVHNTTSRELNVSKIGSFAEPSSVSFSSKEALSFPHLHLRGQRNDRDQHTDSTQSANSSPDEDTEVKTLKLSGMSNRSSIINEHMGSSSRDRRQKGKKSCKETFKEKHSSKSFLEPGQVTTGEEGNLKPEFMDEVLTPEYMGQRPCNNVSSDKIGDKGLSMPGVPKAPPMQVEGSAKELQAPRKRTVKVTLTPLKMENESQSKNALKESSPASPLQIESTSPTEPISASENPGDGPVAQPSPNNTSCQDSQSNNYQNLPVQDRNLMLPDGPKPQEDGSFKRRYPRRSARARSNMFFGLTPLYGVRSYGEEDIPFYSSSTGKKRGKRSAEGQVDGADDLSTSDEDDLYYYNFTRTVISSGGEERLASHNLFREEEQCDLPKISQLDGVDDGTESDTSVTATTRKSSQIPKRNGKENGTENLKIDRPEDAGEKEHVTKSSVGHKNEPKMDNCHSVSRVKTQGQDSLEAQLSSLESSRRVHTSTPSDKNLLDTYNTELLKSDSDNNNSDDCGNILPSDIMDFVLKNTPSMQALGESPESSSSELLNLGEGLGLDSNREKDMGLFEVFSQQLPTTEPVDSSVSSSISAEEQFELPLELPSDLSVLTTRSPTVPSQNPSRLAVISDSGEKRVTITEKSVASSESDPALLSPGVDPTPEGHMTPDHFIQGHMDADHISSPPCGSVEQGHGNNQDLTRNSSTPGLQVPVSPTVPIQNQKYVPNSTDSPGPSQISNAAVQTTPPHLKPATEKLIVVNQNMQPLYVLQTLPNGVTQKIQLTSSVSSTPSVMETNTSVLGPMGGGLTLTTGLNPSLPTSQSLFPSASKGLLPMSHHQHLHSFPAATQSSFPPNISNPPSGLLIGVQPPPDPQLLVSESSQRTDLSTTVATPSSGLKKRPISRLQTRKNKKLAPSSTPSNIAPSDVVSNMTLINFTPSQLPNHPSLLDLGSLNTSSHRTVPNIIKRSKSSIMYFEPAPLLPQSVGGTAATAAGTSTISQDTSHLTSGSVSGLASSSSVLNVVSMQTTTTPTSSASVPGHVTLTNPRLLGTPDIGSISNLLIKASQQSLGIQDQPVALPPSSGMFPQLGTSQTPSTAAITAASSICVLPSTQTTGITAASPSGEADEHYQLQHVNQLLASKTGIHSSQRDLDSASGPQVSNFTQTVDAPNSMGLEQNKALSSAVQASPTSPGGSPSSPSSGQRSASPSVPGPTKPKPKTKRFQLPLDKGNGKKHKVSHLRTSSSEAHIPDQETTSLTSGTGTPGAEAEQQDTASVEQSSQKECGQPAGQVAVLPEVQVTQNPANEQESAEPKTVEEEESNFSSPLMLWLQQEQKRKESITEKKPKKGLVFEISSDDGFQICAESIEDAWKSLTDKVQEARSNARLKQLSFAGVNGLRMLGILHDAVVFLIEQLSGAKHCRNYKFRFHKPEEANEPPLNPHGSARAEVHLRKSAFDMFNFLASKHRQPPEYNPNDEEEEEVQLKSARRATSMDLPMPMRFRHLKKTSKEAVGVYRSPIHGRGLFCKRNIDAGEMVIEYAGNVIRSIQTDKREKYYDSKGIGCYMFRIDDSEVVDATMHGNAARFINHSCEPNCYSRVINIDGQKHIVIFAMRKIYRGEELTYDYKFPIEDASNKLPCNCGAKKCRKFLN
# Procedure, shortened: as §1
# PRMT8 = PRMT8 (Homo sapiens, UniProt Q9NR22)
# Chain of PRMT8 (Q9NR22 whole entry): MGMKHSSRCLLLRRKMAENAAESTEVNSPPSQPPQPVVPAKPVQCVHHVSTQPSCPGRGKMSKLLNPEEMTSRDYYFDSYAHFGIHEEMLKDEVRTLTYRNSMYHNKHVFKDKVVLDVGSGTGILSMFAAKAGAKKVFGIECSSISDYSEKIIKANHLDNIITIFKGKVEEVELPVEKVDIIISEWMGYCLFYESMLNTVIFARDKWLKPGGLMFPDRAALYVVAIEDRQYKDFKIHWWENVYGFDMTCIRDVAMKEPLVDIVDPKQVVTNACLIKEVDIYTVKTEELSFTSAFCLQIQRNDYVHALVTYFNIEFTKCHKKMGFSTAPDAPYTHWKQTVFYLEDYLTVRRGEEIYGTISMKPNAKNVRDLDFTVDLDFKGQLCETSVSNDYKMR
# Procedure, shortened: as §1
# DNMT1 = DNMT1 (Homo sapiens, UniProt P26358)
# Procedure, shortened: as §1
# SUV39H1 = target: T4, SUV39H1 (Homo sapiens, UniProt O43463)
# T4 sequence (O43463 1-412): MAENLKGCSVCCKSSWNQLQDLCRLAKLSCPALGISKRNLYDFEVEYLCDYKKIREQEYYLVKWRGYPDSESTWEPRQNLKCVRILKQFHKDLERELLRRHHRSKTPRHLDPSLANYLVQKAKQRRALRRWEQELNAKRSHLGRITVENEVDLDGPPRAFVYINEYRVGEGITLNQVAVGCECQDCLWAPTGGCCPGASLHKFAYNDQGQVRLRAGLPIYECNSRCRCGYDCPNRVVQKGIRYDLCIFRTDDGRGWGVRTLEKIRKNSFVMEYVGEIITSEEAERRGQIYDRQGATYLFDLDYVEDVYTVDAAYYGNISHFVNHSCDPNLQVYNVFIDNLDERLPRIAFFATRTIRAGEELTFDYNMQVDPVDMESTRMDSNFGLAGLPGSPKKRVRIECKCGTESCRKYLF
# Procedure, shortened: as §1
Compound,remaining activity at 1 µM (SETD2),remaining activity at 10 µM (SETD2),remaining activity at 1 µM (SETD7),remaining activity at 10 µM (SETD7),remaining activity at 1 µM (SUV39H2),remaining activity at 10 µM (SUV39H2),remaining activity at 1 µM (PRMT4),remaining activity at 10 µM (PRMT4),remaining activity at 1 µM (MLL1),remaining activity at 10 µM (MLL1),remaining activity at 1 µM (PRMT8),remaining activity at 10 µM (PRMT8),remaining activity at 1 µM (DNMT1),remaining activity at 10 µM (DNMT1),remaining activity at 1 µM (SUV39H1),remaining activity at 10 µM (SUV39H1)
CC1(C)O[C@@H]2[C@H](O1)[C@@H](CSCCCCNCc1cccc(-c3ccc(Cl)cc3)c1)O[C@H]2n1cnc2c(N)ncnc21 [SGC8158N],103%,97%,96%,89%,103%,78%,101%,100%,101%,98%,97%,97%,94%,99%,98%,78%
Nc1ncnc2c1ncn2[C@@H]1O[C@H](CSCCCCNCc2cccc(-c3ccc(Cl)cc3)c2)[C@@H](O)[C@H]1O [SGC8158],95%,86%,100%,100%,103%,102%,7%,0%,106%,99%,92%,45%,98%,91%,94%,90%
